viability, T/C data for five compounds are collected here from PubChem BioAssay AID1963837 (Molecular Pharmacology Branch, DTP, NCI, 2024).
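Note: spheroids exposed to drugs for seven days before readout.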

The first experiment has as its system 843126-344-R-J1-PDC complex spheroid viability. The experiment can be described thus: Anticancer human tumor 843126-344-R-J1-PDC patient-derived melanoma cell line growth inhibition [POLQ]. To be noted: second compound 3.16 µM; first compound 0.1 µM; hits give low values. Put shortly:
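Three-cell-type spheroids modelling solid tumor plus stroma served as the readout system; POL inhibitors were tested individually and in combination, concentration ranges set by clinical Cmax where known.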
Consider `CC1COCCN1c1cc(-c2ccnn2C)c2ccnc(-c3ccn[nH]3)c2n1` (stereo unspecified) + Nc1ccc(C#CCN(C(=O)Cc2ncc(C(F)(F)F)cc2C(F)(F)F)c2ccc(F)cc2)nn1, for which the viability, T/C (as a rule, the ratio of treated to control) is 70.8%.

On to `CCc1cc2c(N3CCc4c(cc(Cn5ccnc5)cc4-c4cn(C)nc4C(F)(F)F)C3=O)ccnc2c(OC)n1` + Nc1ccc(C#CCN(C(=O)Cc2ncc(C(F)(F)F)cc2C(F)(F)F)c2ccc(F)cc2)nn1, for which the viability, T/C was 90.9%.

Consider `COc1ccc([C@@H](O)c2cc(-c3ncnc4cc(N5CCOCC5)ccc34)c(F)cc2Cl)nn1` + Nc1ccc(C#CCN(C(=O)Cc2ncc(C(F)(F)F)cc2C(F)(F)F)c2ccc(F)cc2)nn1, for which the viability, T/C was 99.3%.

Still in this experiment, the particulars now being: second compound 3.16 µM; first compound 0.316 µM; hits give low values.
In the case of `C=CC(=O)N1CCN(c2nc(=O)n(-c3c(C)ccnc3C(C)C)c3nc(-c4c(O)cccc4F)c(F)cc23)C(C)C1` (stereo unspecified) + Nc1ccc(C#CCN(C(=O)Cc2ncc(C(F)(F)F)cc2C(F)(F)F)c2ccc(F)cc2)nn1, the viability, T/C was 106%.

In the case of `CC(C)n1c(=O)n(C)c2cnc3cc(F)c(-c4ccc(OCCCN5CCCCC5)nc4)cc3c21` + Nc1ccc(C#CCN(C(=O)Cc2ncc(C(F)(F)F)cc2C(F)(F)F)c2ccc(F)cc2)nn1, the viability, T/C was 88.9%.

With `CC1COCCN1c1cc(-c2ccnn2C)c2ccnc(-c3ccn[nH]3)c2n1` (stereo unspecified) + Nc1ccc(C#CCN(C(=O)Cc2ncc(C(F)(F)F)cc2C(F)(F)F)c2ccc(F)cc2)nn1, the viability, T/C is 59.6%.

As for `CCc1cc2c(N3CCc4c(cc(Cn5ccnc5)cc4-c4cn(C)nc4C(F)(F)F)C3=O)ccnc2c(OC)n1` + Nc1ccc(C#CCN(C(=O)Cc2ncc(C(F)(F)F)cc2C(F)(F)F)c2ccc(F)cc2)nn1, the viability, T/C was 96.7%.

Regarding `COc1ccc([C@@H](O)c2cc(-c3ncnc4cc(N5CCOCC5)ccc34)c(F)cc2Cl)nn1` + Nc1ccc(C#CCN(C(=O)Cc2ncc(C(F)(F)F)cc2C(F)(F)F)c2ccc(F)cc2)nn1, the viability, T/C was 92%.

Staying with this experiment, now noted: second compound 3.16 µM; first compound 1 µM; hits give low values.
Regarding `C=CC(=O)N1CCN(c2nc(=O)n(-c3c(C)ccnc3C(C)C)c3nc(-c4c(O)cccc4F)c(F)cc23)C(C)C1` (stereo unspecified) + Nc1ccc(C#CCN(C(=O)Cc2ncc(C(F)(F)F)cc2C(F)(F)F)c2ccc(F)cc2)nn1, the viability, T/C is 92.2%.

Regarding `CC(C)n1c(=O)n(C)c2cnc3cc(F)c(-c4ccc(OCCCN5CCCCC5)nc4)cc3c21` + Nc1ccc(C#CCN(C(=O)Cc2ncc(C(F)(F)F)cc2C(F)(F)F)c2ccc(F)cc2)nn1, the viability, T/C is 82.8%.

Turning to `CC1COCCN1c1cc(-c2ccnn2C)c2ccnc(-c3ccn[nH]3)c2n1` (stereo unspecified) + Nc1ccc(C#CCN(C(=O)Cc2ncc(C(F)(F)F)cc2C(F)(F)F)c2ccc(F)cc2)nn1, the viability, T/C was 44.5%.

In the case of `CCc1cc2c(N3CCc4c(cc(Cn5ccnc5)cc4-c4cn(C)nc4C(F)(F)F)C3=O)ccnc2c(OC)n1` + Nc1ccc(C#CCN(C(=O)Cc2ncc(C(F)(F)F)cc2C(F)(F)F)c2ccc(F)cc2)nn1, the viability, T/C is 80.1%.

Consider `COc1ccc([C@@H](O)c2cc(-c3ncnc4cc(N5CCOCC5)ccc34)c(F)cc2Cl)nn1` + Nc1ccc(C#CCN(C(=O)Cc2ncc(C(F)(F)F)cc2C(F)(F)F)c2ccc(F)cc2)nn1, for which the viability, T/C is 73.6%.

Still in this experiment, the particulars now being: second compound 3.16 µM; first compound 3.16 µM; hits give low values.
With `C=CC(=O)N1CCN(c2nc(=O)n(-c3c(C)ccnc3C(C)C)c3nc(-c4c(O)cccc4F)c(F)cc23)C(C)C1` (stereo unspecified) + Nc1ccc(C#CCN(C(=O)Cc2ncc(C(F)(F)F)cc2C(F)(F)F)c2ccc(F)cc2)nn1, the viability, T/C is 85.8%.

Turning to `CC(C)n1c(=O)n(C)c2cnc3cc(F)c(-c4ccc(OCCCN5CCCCC5)nc4)cc3c21` + Nc1ccc(C#CCN(C(=O)Cc2ncc(C(F)(F)F)cc2C(F)(F)F)c2ccc(F)cc2)nn1, the viability, T/C is 81.8%.

On to `CC1COCCN1c1cc(-c2ccnn2C)c2ccnc(-c3ccn[nH]3)c2n1` (stereo unspecified) + Nc1ccc(C#CCN(C(=O)Cc2ncc(C(F)(F)F)cc2C(F)(F)F)c2ccc(F)cc2)nn1, for which the viability, T/C is 34.5%.

As to `CCc1cc2c(N3CCc4c(cc(Cn5ccnc5)cc4-c4cn(C)nc4C(F)(F)F)C3=O)ccnc2c(OC)n1` + Nc1ccc(C#CCN(C(=O)Cc2ncc(C(F)(F)F)cc2C(F)(F)F)c2ccc(F)cc2)nn1, the viability, T/C is 82.7%.

Turning to `COc1ccc([C@@H](O)c2cc(-c3ncnc4cc(N5CCOCC5)ccc34)c(F)cc2Cl)nn1` + Nc1ccc(C#CCN(C(=O)Cc2ncc(C(F)(F)F)cc2C(F)(F)F)c2ccc(F)cc2)nn1, the viability, T/C is 77.8%.

Staying with this experiment, now noted: second compound 3.16 µM; first compound 10 µM; hits give low values.
Regarding `C=CC(=O)N1CCN(c2nc(=O)n(-c3c(C)ccnc3C(C)C)c3nc(-c4c(O)cccc4F)c(F)cc23)C(C)C1` (stereo unspecified) + Nc1ccc(C#CCN(C(=O)Cc2ncc(C(F)(F)F)cc2C(F)(F)F)c2ccc(F)cc2)nn1, the viability, T/C was 84.5%.

Take `CC(C)n1c(=O)n(C)c2cnc3cc(F)c(-c4ccc(OCCCN5CCCCC5)nc4)cc3c21` + Nc1ccc(C#CCN(C(=O)Cc2ncc(C(F)(F)F)cc2C(F)(F)F)c2ccc(F)cc2)nn1: the viability, T/C is 81%.

Turning to `CC1COCCN1c1cc(-c2ccnn2C)c2ccnc(-c3ccn[nH]3)c2n1` (stereo unspecified) + Nc1ccc(C#CCN(C(=O)Cc2ncc(C(F)(F)F)cc2C(F)(F)F)c2ccc(F)cc2)nn1, the viability, T/C is 29.9%.

Turning to `CCc1cc2c(N3CCc4c(cc(Cn5ccnc5)cc4-c4cn(C)nc4C(F)(F)F)C3=O)ccnc2c(OC)n1` + Nc1ccc(C#CCN(C(=O)Cc2ncc(C(F)(F)F)cc2C(F)(F)F)c2ccc(F)cc2)nn1, the viability, T/C was 56.8%.

Turning to `COc1ccc([C@@H](O)c2cc(-c3ncnc4cc(N5CCOCC5)ccc34)c(F)cc2Cl)nn1` + Nc1ccc(C#CCN(C(=O)Cc2ncc(C(F)(F)F)cc2C(F)(F)F)c2ccc(F)cc2)nn1, the viability, T/C was 64.6%.

Staying with this experiment, now noted: second compound 10 µM; first compound 0.0316 µM; hits give low values.
As for `C=CC(=O)N1CCN(c2nc(=O)n(-c3c(C)ccnc3C(C)C)c3nc(-c4c(O)cccc4F)c(F)cc23)C(C)C1` (stereo unspecified) + Nc1ccc(C#CCN(C(=O)Cc2ncc(C(F)(F)F)cc2C(F)(F)F)c2ccc(F)cc2)nn1, the viability, T/C is 83.7%.

For the compound `CC(C)n1c(=O)n(C)c2cnc3cc(F)c(-c4ccc(OCCCN5CCCCC5)nc4)cc3c21` + Nc1ccc(C#CCN(C(=O)Cc2ncc(C(F)(F)F)cc2C(F)(F)F)c2ccc(F)cc2)nn1, the viability, T/C is 85.3%.

Consider `CC1COCCN1c1cc(-c2ccnn2C)c2ccnc(-c3ccn[nH]3)c2n1` (stereo unspecified) + Nc1ccc(C#CCN(C(=O)Cc2ncc(C(F)(F)F)cc2C(F)(F)F)c2ccc(F)cc2)nn1, for which the viability, T/C is 73.4%.
